Assay results from patent publication US20210007356A1, “IMIDE DERIVATIVE AND FUNGICIDE CONTAINING SAID DERIVATIVE AS ACTIVE INGREDIENT” (HOKKO CHEMICAL INDUSTRY CO., LTD., priority 2018, published 2021).
Where two headings read alike, the source gives them in different places.

Legend:
[1] = tested on: barley powdery mildew fungus (Erysiphe graminis); experiment: Test Example 2: control effect against barley powdery mildew by foliage application; format: in vivo; settings: wettable powder diluted to 100 ppm, 10 mL per pot foliage spray on barley; inoculated day after; 7 days after inoculation
[2] = tested on: rice sheath blight fungus (Thanatephorus cucumeris); experiment: Test Example 8: control effect against rice sheath blight by box treatment (granule); settings: 5 g of granule on nursery box, paddy rice; inoculated after 3 weeks; 7 days after inoculation
Description: (§1) Control value (%)=[1−(lesion height in sprayed plot/lesion height in unsprayed plot)]×100 (d)
From the top of a nursery box, 5 g of a granule prepared according to Formulation Example-4 was applied to a 2.5-leaf-stage paddy rice (variety: Asahi) seedling raised using a nursery box ( 1/10 the area of standard nursery box in size: 12 cm×15 cm×height 4 cm) within a greenhouse. The formulation-treated paddy rice seedling was immediately transplanted at 5 seedlings/pot into a pot ( 1/10000 are in size) filled with paddy soil (flooded). After growing for 3 weeks within a greenhouse, a culture of rice sheath blight fungus (Thanatephorus cucumeris) grown in advance on a rice straw medium was inoculated into the root of the formulation-treated paddy rice, and disease development was promoted in an artificial weather chamber at 26° C. (relative humidity=100%). Seven days after the inoculation, the rice sheath blight lesion height (height from the root) was examined, and the control value (%) was calculated according to formula (d). […] This test was performed with three replications, each consisting of one plot and one pot, per one formulation plot, and its average evaluation value of control effect was determined.

[3] = tested on: rice sheath blight fungus (Thanatephorus cucumeris); experiment: Test Example 6: control effect against rice sheath blight by box treatment (flowable formulation); settings: flowable 5,000 ppm, 50 mL irrigation of nursery box, paddy rice; inoculated after 3 weeks; 7 days after inoculation
Protocol: as §1
By irrigation, 50 mL of a diluted solution (5,000 ppm) of a flowable prepared according to Formulation Example-3 was applied to a 2.5-leaf-stage paddy rice (variety: Asahi) seedling raised using a nursery box ( 1/10 the area of standard nursery box in size: 12 cm×15 cm×height 4 cm) within a greenhouse. The formulation-treated paddy rice seedling was immediately transplanted at 5 seedlings/pot into a pot ( 1/10000 are in size) filled with paddy soil (flooded). After growing for 3 weeks within a greenhouse, a culture of rice sheath blight fungus (Thanatephorus cucumeris) grown in advance on a rice straw medium was inoculated into the root of the formulation-treated paddy rice, and disease development was promoted in an artificial weather chamber at 26° C. (relative humidity=100%). Seven days after the inoculation, the rice sheath blight lesion height (height from the root) was examined, and the control value (%) was calculated according to formula (d). […] This test was performed with three replications, each consisting of one plot and one pot, per one formulation plot, and its average evaluation value of control effect was determined.

[4] = tested on: rice sheath blight fungus (Thanatephorus cucumeris); experiment: Test Example 10: control effect against rice sheath blight by water surface application (flowable formulation); settings: flowable 1,000 ppm, 1 mL dripped in paddy water, inoculated after 1 week, 7 days after inoculation
Protocol: as §1
By dripping treatment in paddy water, 1 mL of a diluted solution (1,000 ppm) of a flowable prepared according to Formulation Example-3 was applied to a 5-leaf-stage paddy rice (variety: Asahi) seedling (5 seedlings/stub, one stub/pot) grown in a pot ( 1/10000 are in size) filled with paddy soil (flooded) within a greenhouse. After growing for 1 week within a greenhouse, a culture of rice sheath blight fungus (Thanatephorus cucumeris) grown in advance on a rice straw medium was inoculated into the root of the formulation-treated paddy rice, and disease development was promoted in an artificial weather chamber at 26° C. (relative humidity=100%). Seven days after the inoculation, the rice sheath blight lesion height (height from the root) was examined, and the control value (%) was calculated according to formula (d). […] This test was performed with three replications, each consisting of one plot and one pot, per one formulation plot, and its average evaluation value of control effect was determined.

[5] = tested on: rice blast fungus (Pyricularia grisea); format: in vivo; settings: flowable 5,000 ppm, 50 mL irrigation of nursery box, paddy rice; inoculated after 3 weeks; 7 days after inoculation
[6] = tested on: rice blast fungus (Pyricularia grisea); format: in vivo; settings: 5 g of granule on nursery box, paddy rice; inoculated after 3 weeks; 7 days after inoculation
[7] = tested on: rice blast fungus (Pyricularia grisea); format: in vivo; settings: flowable 1,000 ppm, 1 mL dripped in paddy water, inoculated after 1 week, 7 days after inoculation

Cc1nc(C(F)(F)F)c(C(=O)N(C(=O)c2c(C)nn(C)c2F)c2ccccc2C(C)CC(C)C)s1 (stereo not drawn) [1-307]
evaluation value of control effect (from control value, lesion area percentage) [1]: 4

Cc1nc(C(F)F)c(C(=O)N(C(=O)c2c(C)nn(C)c2F)c2ccccc2C(C)CC(C)C)s1 (stereo not drawn) [1-325]
evaluation value of control effect (from control value, lesion area percentage) [1]: 4

Cc1nc(C(F)F)c(C(=O)N(C(=O)c2snc(Cl)c2Cl)c2ccccc2-c2cc(F)c(F)c(F)c2)s1 [7-68]
evaluation value of control effect (from control value, lesion area percentage) [1]: 4

Cc1nnsc1C(=O)N(C(=O)c1c(C)nn(C)c1Cl)c1cccc2c1C(C)OC2(C)C (stereo not drawn) [25-116]
evaluation value of control effect (from control value, lesion area percentage) [1]: 4
evaluation value of control effect (from control value, lesion height) [2]: 5
evaluation value of control effect (from control value, lesion height) [3]: 5
evaluation value of control effect (from control value, lesion height) [4]: 5

Cc1nn(C)c(F)c1C(=O)N(C(=O)c1cccc2nnsc12)c1ccccc1C(C)CC(C)C (stereo not drawn) [1-279]
evaluation value of control effect (from control value, lesion height) [2]: 5
evaluation value of control effect (from control value, lesion height) [3]: 5
evaluation value of control effect (from control value, lesion height) [4]: 5

CC(C)CC(C)c1ccccc1N(C(=O)c1cccnc1C(F)(F)F)C(=O)c1snc(Cl)c1Cl (stereo not drawn) [13-1]
evaluation value of control effect (from control value, lesion area percentage) [1]: 5
evaluation value of control effect (from control value, number of lesions) [5]: 5
evaluation value of control effect (from control value, number of lesions) [6]: 5
evaluation value of control effect (from control value, number of lesions) [7]: 5

CC1CC(C)(C)c2cccc(N(C(=O)c3cn(C)nc3C(F)F)C(=O)c3scnc3C(F)(F)F)c21 (stereo not drawn) [25-103]
evaluation value of control effect (from control value, lesion area percentage) [1]: 4

CC(C)CC(C)c1ccccc1N(C(=O)c1cn(C)nc1C(F)F)C(=O)c1c(C(F)F)nn(C)c1Cl (stereo not drawn) [1-354]
evaluation value of control effect (from control value, lesion area percentage) [1]: 5
evaluation value of control effect (from control value, lesion height) [2]: 5
evaluation value of control effect (from control value, lesion height) [3]: 5
evaluation value of control effect (from control value, lesion height) [4]: 5

CCC(C)Oc1cccc(N(C(=O)c2cn(C)nc2C(F)F)C(=O)c2snc(Cl)c2Cl)c1C (stereo not drawn) [1-122]
evaluation value of control effect (from control value, lesion height) [2]: 5
evaluation value of control effect (from control value, lesion height) [3]: 5
evaluation value of control effect (from control value, lesion height) [4]: 5

Cn1cc(C(=O)N(C(=O)c2snc(Cl)c2Cl)c2ccccc2-c2cc(F)c(F)c(F)c2)c(C(F)F)n1 [1-65]
evaluation value of control effect (from control value, lesion area percentage) [1]: 5
evaluation value of control effect (from control value, lesion height) [2]: 5
evaluation value of control effect (from control value, lesion height) [3]: 5
evaluation value of control effect (from control value, lesion height) [4]: 5

Cc1nn(C)c(Cl)c1C(=O)N(C(=O)c1cccc2nnsc12)c1cccc2c1C(C)OC2(C)C (stereo not drawn) [25-118]
evaluation value of control effect (from control value, number of lesions) [5]: 5
evaluation value of control effect (from control value, number of lesions) [6]: 5
evaluation value of control effect (from control value, number of lesions) [7]: 5

Cc1nsc(C(=O)N(C(=O)c2cn(C)nc2C(F)F)c2ccccc2C(C)CC(C)C)c1Cl (stereo not drawn) [1-140]
evaluation value of control effect (from control value, lesion area percentage) [1]: 5
evaluation value of control effect (from control value, lesion height) [2]: 5
evaluation value of control effect (from control value, lesion height) [3]: 5
evaluation value of control effect (from control value, lesion height) [4]: 5

Cc1nnsc1C(=O)N(C(=O)c1cn(C)nc1C(F)F)c1cccc2c1C(C)CC2(C)C (stereo not drawn) [25-47]
evaluation value of control effect (from control value, lesion area percentage) [1]: 4
evaluation value of control effect (from control value, lesion height) [2]: 5
evaluation value of control effect (from control value, lesion height) [3]: 5
evaluation value of control effect (from control value, lesion height) [4]: 5

Cc1nc(C(F)(F)F)c(C(=O)N(C(=O)c2cn(C)nc2C(F)F)c2cccc3c2C(C)OC3(C)C)s1 (stereo not drawn) [25-92]
evaluation value of control effect (from control value, lesion area percentage) [1]: 4
evaluation value of control effect (from control value, lesion height) [2]: 5
evaluation value of control effect (from control value, lesion height) [3]: 5
evaluation value of control effect (from control value, lesion height) [4]: 5

CCc1nc(C(F)F)c(C(=O)N(C(=O)c2c(C)nn(C)c2F)c2ccccc2C(C)CC(C)C)s1 (stereo not drawn) [1-292]
evaluation value of control effect (from control value, lesion height) [2]: 5
evaluation value of control effect (from control value, lesion height) [3]: 5
evaluation value of control effect (from control value, lesion height) [4]: 5

CC(C)CC(C)c1ccccc1N(C(=O)c1cccnc1C(F)F)C(=O)c1cn(C)nc1C(F)F (stereo not drawn) [1-349]
evaluation value of control effect (from control value, lesion area percentage) [1]: 4

Cc1nn(C)c(Cl)c1C(=O)N(C(=O)c1cc(Cl)nc(Cl)c1)c1cccc2c1C(C)OC2(C)C (stereo not drawn) [25-125]
evaluation value of control effect (from control value, lesion area percentage) [1]: 4

Cc1nc(C(F)F)c(C(=O)N(C(=O)c2sc(C)nc2C(F)F)c2cccc3c2C(C)CC3(C)C)s1 (stereo not drawn) [26-77]
evaluation value of control effect (from control value, lesion area percentage) [1]: 4
evaluation value of control effect (from control value, lesion height) [2]: 5
evaluation value of control effect (from control value, lesion height) [3]: 5
evaluation value of control effect (from control value, lesion height) [4]: 5

Cc1nc(C(F)F)c(C(=O)N(C(=O)c2cn(C)nc2C(F)F)c2ccccc2-c2cc(F)c(F)c(F)c2)s1 [1-372]
evaluation value of control effect (from control value, lesion area percentage) [1]: 4
evaluation value of control effect (from control value, lesion height) [2]: 5
evaluation value of control effect (from control value, lesion height) [3]: 5
evaluation value of control effect (from control value, lesion height) [4]: 5

Cn1cc(C(=O)N(C(=O)c2cccc3nnsc23)c2ccccc2-c2cc(F)c(F)c(F)c2)c(C(F)F)n1 [1-369]
evaluation value of control effect (from control value, lesion area percentage) [1]: 4
evaluation value of control effect (from control value, lesion height) [2]: 5
evaluation value of control effect (from control value, lesion height) [3]: 5
evaluation value of control effect (from control value, lesion height) [4]: 5

Cc1nc(C(F)F)c(C(=O)N(C(=O)c2snc(Cl)c2Cl)c2c(Br)cc(OC(F)(F)F)cc2Br)s1 [7-129]
evaluation value of control effect (from control value, lesion area percentage) [1]: 4

Cc1nc(C(F)F)c(C(=O)N(C(=O)c2cc(Cl)no2)c2cccc3c2C(C)CC3(C)C)s1 (stereo not drawn) [26-88]
evaluation value of control effect (from control value, lesion area percentage) [1]: 4
evaluation value of control effect (from control value, lesion height) [2]: 5
evaluation value of control effect (from control value, lesion height) [3]: 5
evaluation value of control effect (from control value, lesion height) [4]: 5

Cn1cc(C(=O)N(C(=O)c2cc(Cl)c(Cl)s2)c2ccccc2-c2cc(F)c(F)c(F)c2)c(C(F)F)n1 [1-373]
evaluation value of control effect (from control value, lesion area percentage) [1]: 4
evaluation value of control effect (from control value, lesion height) [2]: 5
evaluation value of control effect (from control value, lesion height) [3]: 5
evaluation value of control effect (from control value, lesion height) [4]: 5

Cc1nc(C(F)(F)F)c(C(=O)N(C(=O)c2cn(C)nc2C(F)F)c2ccccc2C(C)CC(C)C)s1 (stereo not drawn) [1-300]
evaluation value of control effect (from control value, lesion area percentage) [1]: 5
evaluation value of control effect (from control value, lesion height) [2]: 5
evaluation value of control effect (from control value, lesion height) [3]: 5
evaluation value of control effect (from control value, lesion height) [4]: 5

CC1CC(C)(C)c2cccc(N(C(=O)c3cccnc3C(F)F)C(=O)c3snc(Cl)c3Cl)c21 (stereo not drawn) [27-3]
evaluation value of control effect (from control value, lesion area percentage) [1]: 5
evaluation value of control effect (from control value, lesion height) [2]: 5
evaluation value of control effect (from control value, lesion height) [3]: 5
evaluation value of control effect (from control value, lesion height) [4]: 5

CC1CC(C)(C)c2cccc(N(C(=O)c3cn(C)nc3C(F)F)C(=O)c3onc(Cl)c3Cl)c21 (stereo not drawn) [25-113]
evaluation value of control effect (from control value, lesion area percentage) [1]: 4
evaluation value of control effect (from control value, lesion height) [2]: 5
evaluation value of control effect (from control value, lesion height) [3]: 5
evaluation value of control effect (from control value, lesion height) [4]: 5

Cc1nc(C(F)F)c(C(=O)N(C(=O)c2cccnc2C(F)F)c2ccccc2C(C)CC(C)C)s1 (stereo not drawn) [13-20]
evaluation value of control effect (from control value, lesion area percentage) [1]: 4
evaluation value of control effect (from control value, number of lesions) [5]: 5

Cc1nc(C(F)F)c(C(=O)N(C(=O)c2cc(Cl)c(Cl)s2)c2cccc3c2C(C)CC3(C)C)s1 (stereo not drawn) [26-87]
evaluation value of control effect (from control value, number of lesions) [5]: 5
evaluation value of control effect (from control value, number of lesions) [6]: 5
evaluation value of control effect (from control value, number of lesions) [7]: 5

Cc1nc(C(F)F)c(C(=O)N(C(=O)c2snc(Cl)c2Cl)c2cccc3c2C(C)CC3(C)C)s1 (stereo not drawn) [26-8]
evaluation value of control effect (from control value, lesion area percentage) [1]: 5
evaluation value of control effect (from control value, lesion height) [2]: 5
evaluation value of control effect (from control value, lesion height) [3]: 5
evaluation value of control effect (from control value, lesion height) [4]: 5

Cn1cc(C(=O)N(C(=O)c2snc(Cl)c2Cl)c2ccccc2-c2ccccc2)c(C(F)F)n1 [1-61]
evaluation value of control effect (from control value, lesion area percentage) [1]: 4

Cc1nn(C)c(Cl)c1C(=O)N(C(=O)c1onc(Cl)c1Cl)c1cccc2c1C(C)OC2(C)C (stereo not drawn) [25-124]
evaluation value of control effect (from control value, lesion area percentage) [1]: 4
evaluation value of control effect (from control value, lesion height) [2]: 5
evaluation value of control effect (from control value, lesion height) [3]: 5
evaluation value of control effect (from control value, lesion height) [4]: 5

CCc1nc(C(F)F)c(C(=O)N(C(=O)c2cn(C)nc2C(F)F)c2cccc3c2C(C)CC3(C)C)s1 (stereo not drawn) [25-85]
evaluation value of control effect (from control value, lesion area percentage) [1]: 4
evaluation value of control effect (from control value, lesion height) [2]: 5
evaluation value of control effect (from control value, lesion height) [3]: 5
evaluation value of control effect (from control value, lesion height) [4]: 5

Cc1nc(C(F)(F)F)c(C(=O)N(C(=O)c2scnc2C(F)(F)F)c2c(Br)cc(OC(F)(F)F)cc2Br)s1 [7-284]
evaluation value of control effect (from control value, lesion height) [2]: 5
evaluation value of control effect (from control value, lesion height) [3]: 5
evaluation value of control effect (from control value, lesion height) [4]: 5

Cc1nn(C)c(F)c1C(=O)N(C(=O)c1cc(Cl)nc(Cl)c1)c1ccccc1C(C)CC(C)C (stereo not drawn) [1-266]
evaluation value of control effect (from control value, lesion area percentage) [1]: 4

Cc1nc(C(F)F)c(C(=O)N(C(=O)c2snnc2C)c2ccsc2C(C)CC(C)C)s1 (stereo not drawn) [11-20]
evaluation value of control effect (from control value, lesion area percentage) [1]: 5
